For data set [1] the following is noted: cited from earlier work.
Data set [2] relates to human red blood cells (RBCs). Nature of the data set: Hemolytic activity of Na2B12I12 (Hb release from RBCs). It counts as cell-based. From the text: General methods. Na2B12I12 was obtained from Katchem, γ-cyclodextrin (γ-CD) was obtained from Combi-Blocks, 2-hydroxypropyl-γ-cyclodextrin (HP-γ-CD; 0.6 functionalized, average Mw=1580 Da) was obtained from Sigma-Aldrich, phosphate-buffered saline (PBS) was obtained from Fisher Scientific. The reagents were used as received. D2O was obtained from Cambridge Isotopes. Washed single-donor human red blood cells (RBCs) were obtained from Innovative Research. These are RBCs that have been separated from type 0 positive whole blood and resuspended in Alsever's Solution. Defibrinated bovine blood was obtained from HemoStat Laboratories. All experiments were performed under ambient conditions. NMR spectra were collected using a Bruker Avance III HD 500 spectrometer equipped with a multinuclear Smart Probe. The frequencies of the ^1H and ^11B NMR signals are reported in ppm as chemical shifts from TMS and BF3·Et2O, respectively. Electronic absorption spectra were recorded on VWR UV-6300PC double beam spectrophotometer. Stability of Na2B12I12: refluxing PBS. A 500 μL aliquot of a 10 mM solution of Na2B12I12 in PBS (pH 7.4) was placed in an oil bath pre-heated to 100° C. After incubating in this bath for 1 h, the sample was removed, cooled to room temperature, and spiked with 50 μL D2O prior to acquiring a ^11B NMR spectrum. Stability of Na2B12I12: human RBCs. A 275 μL aliquot of a 20 mM solution of Na2B12I12 in PBS (pH 7.4) was added to a 225 μL suspension of human RBCs. The mixture was allowed to stand at room temperature for 24 h. It was then spiked with 50 μL D2O prior to acquiring a ^11B NMR spectrum. […] Stability of Na2B12I12: bovine serum. A 1 mL aliquot of defibrinated bovine blood was centrifuged for 15 s at 15,850×g. A 225 μL aliquot of the serum supernatant was combined with a 275 μL aliquot of a 20 mM solution of Na2B12I12 in PBS (pH 7.4). The mixture was allowed to stand at room temperature for 24 h. It was then spiked with 50 μL D2O prior to acquiring a ^11B NMR spectrum. Stability of Na2B12I12: bovine blood. A 225 μL aliquot of defibrinated bovine blood was combined with a 275 μL aliquot of a 20 mM solution of Na2B12I12 in PBS (pH 7.4). The mixture was allowed to stand at room temperature for 24 h. It was then spiked with 50 μL D2O prior to acquiring a ^11B NMR spectrum. Job plot of HP-γ-CD and Na2B12I12. Solutions of Na2B12I12 (20 mM) and […] (20 mM) were prepared in PBS (pH 7.4). […] Each sample was spiked with D2O and analyzed by ^11B NMR spectroscopy. […] The absorbance of this solution was measured from 700 to 350 nm. The subsequent samples were then measured in turn. […] The absorbance corresponding to 100% lysis was confirmed by adding a 10 μL aliquot of freshly resuspended RBCs to 250 μL of hemolysis buffer (0.15 M NH4Cl and 10 mM KHCO3). […]

Data set [3] is described as follows: Stability of Na2B12I12: refluxing PBS (11B NMR). Type of data set: physicochemical. The conditions noted are these: refluxing in PBS pH 7.4 (100° C.) for 1 hour. The source says: (§1) General methods. Na2B12I12 was obtained from Katchem, γ-cyclodextrin (γ-CD) was obtained from Combi-Blocks, 2-hydroxypropyl-γ-cyclodextrin (HP-γ-CD; 0.6 functionalized, average Mw=1580 Da) was obtained from Sigma-Aldrich, phosphate-buffered saline (PBS) was obtained from Fisher Scientific. The reagents were used as received. D2O was obtained from Cambridge Isotopes. Washed single-donor human red blood cells (RBCs) were obtained from Innovative Research. These are RBCs that have been separated from type 0 positive whole blood and resuspended in Alsever's Solution. Defibrinated bovine blood was obtained from HemoStat Laboratories. All experiments were performed under ambient conditions. NMR spectra were collected using a Bruker Avance III HD 500 spectrometer equipped with a multinuclear Smart Probe. The frequencies of the ^1H and ^11B NMR signals are reported in ppm as chemical shifts from TMS and BF3·Et2O, respectively. Electronic absorption spectra were recorded on VWR UV-6300PC double beam spectrophotometer. […] Each sample was spiked with D2O and analyzed by ^11B NMR spectroscopy. […] The absorbance of this solution was measured from 700 to 350 nm. The subsequent samples were then measured in turn. […] The absorbance corresponding to 100% lysis was confirmed by adding a 10 μL aliquot of freshly resuspended RBCs to 250 μL of hemolysis buffer (0.15 M NH4Cl and 10 mM KHCO3). […]

Data set [4] can be described thus: Stability of Na2B12I12: human RBCs (11B NMR). Type of data set: in vitro ADME. Conditions: 24-hour incubation at room temperature with suspension of human RBCs.
From the text: as §1

The nature of data set [5]: Stability of Na2B12I12: bovine serum (11B NMR). Type of data set: in vitro ADME. Conditions: 24-hour incubation at room temperature with bovine serum.
From the text: as §1

Data set [6] is described as follows: Stability of Na2B12I12: bovine blood (11B NMR). Type of data set: in vitro ADME. The conditions noted are these: 24-hour incubation at room temperature with defibrinated bovine blood.
From the text: as §1

In data set [7] the test system is mice. The conditions noted are these: cited from earlier work.
Data set [8] has as its system cats. Conditions: cited from earlier work.

Entries after “also recorded” stand apart in the source; their conditions may differ. Like-named read-outs stand apart in the source and are kept apart here.

As for “closo-dodecaiodododecaborate [B12I12^2−]”, the chemical stability result in data set [1] (heating to 85° C. in 5M NaOH), in data set [1] (heating to 150° C. in H2SO4) and in data set [1] (treatment with Cl2 gas) was “unchanged” in each case.

With “closo-dodecaiodododecaborate sodium [Na2B12I12]”, in data set [2] (100 mM Na2B12I12, no cyclodextrin, human RBCs), the hemolysis entry was “rapid hemolysis; also recorded: complete hemolysis”. Moreover, in data set [2] (Na2B12I12 alone), the “concentrations at which hemolysis is not induced” value is “below 6 mM”. For the same substance, the “concentration of PBS solutions that induce hemolysis” value in data set [2] (PBS) is given as “greater than 50 mM”. Besides, the half-maximal inhibitory concentration (IC50) in data set [2] (human RBCs in PBS pH 7.4, 10 s exposure, three replicates, read-out: IC50 (proportion of RBCs lysed, absorption of supernatant at 413 nm, logistic regression) (converted)) was 66.3 mM. Further, the “stability (new 11B NMR signals)” value in data set [3] is “lack of new ^11B NMR signals”; in data set [4], “no additional signals appear; also recorded: absence of new signals”; in data set [5], “no additional signals appear; also recorded: absence of new signals”; in data set [6] it was “no additional signals appear; also recorded: absence of new signals”. Also, the toxicity entry in data set [7] and in data set [8] was “toxic” in each case.
